Reference: patent US20070116823A1, “HIGH-POTENCY SWEETENER FOR HYDRATION AND SWEETENED HYDRATION COMPOSITION” (THE COCA-COLA COMPANY, priority 2005, published 2007)

What was measured:
[1] = Rate of dissolution of rebaudioside A forms in H2O at 25° C.; assay type: physicochemical; details: in words
[2] = tested on: panel of experts in the sensory evaluation of foods and beverages; experiment: Sensory evaluation of sweetness linger by expert panel; assay type: in vivo; details: for Sweetness linger rating / Sweetness linger: scale 0=no to 5=high sweetness linger; for Sweetness Linger rating as defined by the protocol: reference points of the scale, REBA control sample 500 ppm
Description: Sensory evaluation of the samples prepared in Example Set G was carried out under the following protocol, similar to that described hereinabove. In this test protocol, none of the samples were swallowed. All samples were expectorated and the mouth was rinsed with water after the tasting. Immediately upon sensing maximal sweetness, the sample was expectorated, the mouth was rinsed with water and the rate of sweetness decay (“Sweetness Linger”) was measured, where attention was focused on the sweetness 3-4 min after the water rinse. After sample tasting was complete, a salty oyster cracker was chewed followed by a water rinse, and at least 5 minutes followed before tasting the next sample. The sweetness linger was rated by a panel of experts in the sensory evaluation of foods and beverages using the following scale: 0=no sweetness linger, 1=very slight sweetness linger, 2=slight sweetness linger, 3=moderate sweetness linger, 4=moderately high sweetness linger, 5=high sweetness linger.
The “Sweetness Linger” rating for sucrose observed by this protocol is defined as 0. The Sweetness Linger of a 500 ppm of REBA control sample is defined as 5. Experimental samples were tasted by the same protocol, always allowing sufficient time between samples to ensure re-equilibration of the sensory system. Re-tasting of control samples during the course of the experiment was allowed and encouraged.
The comparison taste test was performed between two controls and addition of sweet taste improving additive on the onset and/or sweetness linger.
Sweet taste improving compositions were combined with a REBA solution to determine their effect on sweetness linger. Screening of the initial sample, or further dilutions, allowed identification of concentrations which were just above-threshold, herein defined as “near-threshold concentrations.” The near-threshold additive concentrations, a 6- to 100-fold higher higher additive concentration (depending on the off-taste intensity), and a mid-level additive concentration (halfway between the near-threshold and higher additive concentration) were evaluated to determine the effect on sweetness linger of a REBA solution.
Formulations of a 500 ppm REBA in a phosphoric acid solution (75%) at a pH of 2.5 with phosphoric acid or a pH of 3.1 with citric acid and potassium citrate were prepared prior to the addition of the additives at the three levels of concentration.
\Sensory evaluation using the protocol described in Example Set C then was used to evaluate the sweetness linger of the REBA solutions.

| Molecule | Rate of dissolution in H2O at 25° C. [1] | Sweetness Linger rating as defined by the protocol [2] | further results |
| --- | --- | --- | --- |
| rebaudioside A [Form 1] | Very low | – | – |
| OC[C@H]1O[C@@](CO)(O[C@H]2O[C@H](CO)[C@@H](O)[C@H](O)[C@H]2O)[C@@H](O)[C@@H]1O [sucrose] | – | 0 | Sweetness linger rating ([2]; Set G control: 8 g of sugar in 100 ml of citrate buffer): 0; Sweetness linger rating ([2]; Set H control: 10 g of sugar in 100 ml carbon treated water, phosphoric acid to pH 2.4-2.5): 0 |
| rebaudioside A | – | 5 | Sweetness linger ([2]; Example Set G: 400 ppm REBA in citric acid/potassium citrate composition equivalent to diet lemon-lime beverage, with or without additive): 5; Sweetness linger ([2]; Example Set H: REBA in carbon-treated water, phosphoric acid (75%) to pH 2.4-2.5, with or without additive): 5 |

Now from value to molecule, other results behind:

| Rate of dissolution in H2O at 25° C. [1] | Molecule | Sweetness Linger rating as defined by the protocol [2] | further results |
| --- | --- | --- | --- |
| Intermediate | rebaudioside A [Form 2] | – | – |
| High | rebaudioside A [Form 4] | – | – |
| High | rebaudioside A [Form 3] | – | – |
